For one experiment, the target named is T1, ecdysone receptor (Drosophila melanogaster, UniProt P34021).
T1 construct: endogenous in cells; host or cells: Drosophila Kr (Kc) cells, undiluted cytosolic extract
T1 sequence (P34021 1-878): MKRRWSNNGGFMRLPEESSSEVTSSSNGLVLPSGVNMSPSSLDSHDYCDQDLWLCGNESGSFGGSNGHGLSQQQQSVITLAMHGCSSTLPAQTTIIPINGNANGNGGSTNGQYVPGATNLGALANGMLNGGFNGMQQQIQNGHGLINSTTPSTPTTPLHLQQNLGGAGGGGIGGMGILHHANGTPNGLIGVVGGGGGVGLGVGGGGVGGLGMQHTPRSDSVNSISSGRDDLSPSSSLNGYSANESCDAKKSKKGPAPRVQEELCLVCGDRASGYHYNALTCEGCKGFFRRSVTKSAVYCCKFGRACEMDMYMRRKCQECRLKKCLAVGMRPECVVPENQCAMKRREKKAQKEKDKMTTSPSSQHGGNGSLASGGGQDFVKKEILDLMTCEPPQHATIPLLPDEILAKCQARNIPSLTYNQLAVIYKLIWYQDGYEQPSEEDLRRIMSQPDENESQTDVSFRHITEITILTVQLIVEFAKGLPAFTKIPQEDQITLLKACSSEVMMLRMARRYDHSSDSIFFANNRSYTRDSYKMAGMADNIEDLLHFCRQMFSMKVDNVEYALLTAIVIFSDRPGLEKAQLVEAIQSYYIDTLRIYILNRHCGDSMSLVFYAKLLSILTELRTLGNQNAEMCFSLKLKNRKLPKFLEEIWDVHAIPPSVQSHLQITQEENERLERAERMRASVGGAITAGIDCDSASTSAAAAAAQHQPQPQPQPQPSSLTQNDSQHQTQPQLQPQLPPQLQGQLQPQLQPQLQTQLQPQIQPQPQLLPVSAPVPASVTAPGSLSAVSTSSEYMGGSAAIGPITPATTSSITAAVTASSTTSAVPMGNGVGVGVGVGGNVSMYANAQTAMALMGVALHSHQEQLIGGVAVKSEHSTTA
T1 sequence (P20153 1-508 partner): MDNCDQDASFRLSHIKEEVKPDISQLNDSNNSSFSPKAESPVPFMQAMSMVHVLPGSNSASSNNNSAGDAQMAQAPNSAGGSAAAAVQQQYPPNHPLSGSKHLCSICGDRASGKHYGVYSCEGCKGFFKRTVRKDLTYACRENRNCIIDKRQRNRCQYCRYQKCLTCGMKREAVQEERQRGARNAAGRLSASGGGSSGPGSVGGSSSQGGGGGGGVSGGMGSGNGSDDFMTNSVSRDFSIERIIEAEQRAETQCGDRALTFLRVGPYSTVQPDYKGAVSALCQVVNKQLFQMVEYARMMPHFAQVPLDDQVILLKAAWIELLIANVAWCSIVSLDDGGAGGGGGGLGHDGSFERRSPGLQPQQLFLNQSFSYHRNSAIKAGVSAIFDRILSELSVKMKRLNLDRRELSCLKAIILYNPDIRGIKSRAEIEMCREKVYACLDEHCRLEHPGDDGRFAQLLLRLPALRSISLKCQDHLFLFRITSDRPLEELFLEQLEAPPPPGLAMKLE
The experiment in a line: ^3H-ponasterone A binding to / displacement from Kr cell cytosolic receptor extracts. To be noted: for displacement of ^3H-ponasterone A from cytosolic receptor extracts: at saturating concentrations. How it is done: The invention will now be further described by way of exemplification and by reference to the drawings in which; • Figure 1. Both 20-hydroxyecdysone and Example No. 3 induce process elaboration (A) and inhibition of cell proliferation (B) in Kr cells in a dose-dependent manner. Initial cell density was 2 X 10^6 cells/ml; after incubation of 1 ml aliquots of the cells with the compound for 48 hours the cells were triturated gently and the percentage of cells responding (with processes longer than approximately 17 um, see Cherbas et al. 189 Wilhelm Roux's Arch. 1 (1980)) and total cell density was determined by hemocytom- eter counting, relative to ethanol (1 ul)-treated controls. Determinations were in triplicate for each dose. […] Induction of acetylcholinesterase by varying concentrations of 20-hydroxyecdysone and Example No. 3. Kr cells at an initial density of 3 X 10^6 cells/ml (10 ml per sample) were incubated with the agonist for three days. After harvesting, by centrifugation at 3000 X g, the cell pellets were washed with Robb's Drosophila saline (18, 2 X 5 ml) at 4 ° C, then lysed by sonication in 1 ml of phosphate buffer (pH 7.4, I = 0.1 M) containing 0.5 M NaCI, 0.25 M EDTA and 0.5% TRITON? X-100. See Cherbas, 197 Science 275 (1977). Triton is a registered trademark of Rohm and Haas Company for a alkylaryl polyoxyethylene glycol surfactant. After centrifugation at 16,000 X g, the supernatants were assayed for acetylcholinesterase activity by an adaptation of the method of Ellman et al., 7 Biochem. Pharmacol. 88 (1961), by subtracting out any 412 nm absorbance observed in incubations in the presence of 2 X 10-5 eserine sulfate. Thus reaction mixtures contained 50 ul of enzyme extract, 20 ul eserine (blank tubes only) and 1.0 ml of 0.5 mM acetylthiocholine, 0.3 mM dithiobisnitrobenzoic acid in phosphate buffer (pH 7.4, I = 0.1 M). Incubations were at 25 ° C for two hours; reactions in active tubes were terminated by addition of eserine. Absorbance at 412 nm was then measured. Protein concentration in extracts was measured by the Biorad method. […] Scatchard plot of ^3H-ponasterone A binding to Kr cell cytosolic receptor extracts in the presence of differing concentrations of Example No. 3. Cytosolic extract preparation and ecdysteroid receptor assays were essentially as described in Sage, 111 Meth. in Enzymol. 458 (1985). Example No. 3 was added in 1 ul DMSO to 50 ul of radioligand in 10 mM Tris buffer (pH 7.2) and 50 ul of undiluted cytosol extract. After incubation overnight at 0.5 ° C, bound label was separated from free by addition of 300 ul 1% HCI-washed charcoal (Sigma) and 0.1% Dextran T70 (Pharmacia) in Tris buffer, centrifugation (13,000 X g, 3 min, 4 ° C) and liquid scintillation counting of a 300 ul aliquot of the supernatant in 15 ml Hydrofluor (National Diagnostics). Points are means of duplicate determinations. […] Relative ability of 20 hydroxyecdysone and Example No. 3 to displace ^3H-ponasterone A from cytosolic receptor extracts. Conditions were as in Figure 3 except that only 0.5 nM ponasterone A was used. • Points are means of duplicate determinations. For 20-hydroxyecdysone EC50 = 0.1 uM while for Example No. 3 EC50 = 3.0 uM. Control binding = 10 femtomoles ^3H-ponasterone A bound per mg cytosol protein. • Figure 4. Effects of 10 ppm Example No. 3 administered in artificial diet to newly ecdysed fourth instar (L4) M. sexta, monitoring (A)immunoreactive hemolymph ecdysteroid titers and (B)weight gain. Ecdysteroid titers were measured by a radioimmunoassay adapted from Warren et al., 40 Experientia 393 (1984) with Protein A-Staph. aureus suspension (Sigma) used as the reagent to separate bound from free ligand. The antiecdysone antiserum was formed by reaction of 20-hydroxyecdysone with carboxymethox- yamine resulting in the corresponding ecdysteroid 6-oxime acid. […] All samples were diluted appropriately in borate buffer pH 8.0 and assayed in duplicate. […]

The test system of the next experiment is Kr cells. The experiment in a line: Process elaboration and inhibition of cell proliferation in Kr cells. The experiment is classed as cell-based, Drosophila. To be noted: at saturating concentrations. On the procedure: The invention will now be further described by way of exemplification and by reference to the drawings in which; • Figure 1. Both 20-hydroxyecdysone and Example No. 3 induce process elaboration (A) and inhibition of cell proliferation (B) in Kr cells in a dose-dependent manner. Initial cell density was 2 X 10^6 cells/ml; after incubation of 1 ml aliquots of the cells with the compound for 48 hours the cells were triturated gently and the percentage of cells responding (with processes longer than approximately 17 um, see Cherbas et al. 189 Wilhelm Roux's Arch. 1 (1980)) and total cell density was determined by hemocytom- eter counting, relative to ethanol (1 ul)-treated controls. Determinations were in triplicate for each dose. […] Induction of acetylcholinesterase by varying concentrations of 20-hydroxyecdysone and Example No. 3. Kr cells at an initial density of 3 X 10^6 cells/ml (10 ml per sample) were incubated with the agonist for three days. After harvesting, by centrifugation at 3000 X g, the cell pellets were washed with Robb's Drosophila saline (18, 2 X 5 ml) at 4 ° C, then lysed by sonication in 1 ml of phosphate buffer (pH 7.4, I = 0.1 M) containing 0.5 M NaCI, 0.25 M EDTA and 0.5% TRITON? X-100. See Cherbas, 197 Science 275 (1977). Triton is a registered trademark of Rohm and Haas Company for a alkylaryl polyoxyethylene glycol surfactant. After centrifugation at 16,000 X g, the supernatants were assayed for acetylcholinesterase activity by an adaptation of the method of Ellman et al., 7 Biochem. Pharmacol. 88 (1961), by subtracting out any 412 nm absorbance observed in incubations in the presence of 2 X 10-5 eserine sulfate. Thus reaction mixtures contained 50 ul of enzyme extract, 20 ul eserine (blank tubes only) and 1.0 ml of 0.5 mM acetylthiocholine, 0.3 mM dithiobisnitrobenzoic acid in phosphate buffer (pH 7.4, I = 0.1 M). Incubations were at 25 ° C for two hours; reactions in active tubes were terminated by addition of eserine. Absorbance at 412 nm was then measured. Protein concentration in extracts was measured by the Biorad method. […] Scatchard plot of ^3H-ponasterone A binding to Kr cell cytosolic receptor extracts in the presence of differing concentrations of Example No. 3. Cytosolic extract preparation and ecdysteroid receptor assays were essentially as described in Sage, 111 Meth. in Enzymol. 458 (1985). Example No. 3 was added in 1 ul DMSO to 50 ul of radioligand in 10 mM Tris buffer (pH 7.2) and 50 ul of undiluted cytosol extract. […] Ecdysteroid titers were measured by a radioimmunoassay adapted from Warren et al., 40 Experientia 393 (1984) with Protein A-Staph. aureus suspension (Sigma) used as the reagent to separate bound from free ligand. […]

A further experiment concerns antiecdysone antiserum. Put plainly: Binding by antiecdysone antiserum (radioimmunoassay). To be noted: ^3H-alpha ecdysone as the radioligand. On the procedure:
The invention will now be further described by way of exemplification and by reference to the drawings in which; • Figure 1. Both 20-hydroxyecdysone and Example No. 3 induce process elaboration (A) and inhibition of cell proliferation (B) in Kr cells in a dose-dependent manner. Initial cell density was 2 X 10^6 cells/ml; after incubation of 1 ml aliquots of the cells with the compound for 48 hours the cells were triturated gently and the percentage of cells responding (with processes longer than approximately 17 um, see Cherbas et al. 189 Wilhelm Roux's Arch. 1 (1980)) and total cell density was determined by hemocytom- eter counting, relative to ethanol (1 ul)-treated controls. Determinations were in triplicate for each dose. […] Induction of acetylcholinesterase by varying concentrations of 20-hydroxyecdysone and Example No. 3. Kr cells at an initial density of 3 X 10^6 cells/ml (10 ml per sample) were incubated with the agonist for three days. After harvesting, by centrifugation at 3000 X g, the cell pellets were washed with Robb's Drosophila saline (18, 2 X 5 ml) at 4 ° C, then lysed by sonication in 1 ml of phosphate buffer (pH 7.4, I = 0.1 M) containing 0.5 M NaCI, 0.25 M EDTA and 0.5% TRITON? X-100. See Cherbas, 197 Science 275 (1977). Triton is a registered trademark of Rohm and Haas Company for a alkylaryl polyoxyethylene glycol surfactant. After centrifugation at 16,000 X g, the supernatants were assayed for acetylcholinesterase activity by an adaptation of the method of Ellman et al., 7 Biochem. Pharmacol. 88 (1961), by subtracting out any 412 nm absorbance observed in incubations in the presence of 2 X 10-5 eserine sulfate. […] Absorbance at 412 nm was then measured. Protein concentration in extracts was measured by the Biorad method. […] Ecdysteroid titers were measured by a radioimmunoassay adapted from Warren et al., 40 Experientia 393 (1984) with Protein A-Staph. aureus suspension (Sigma) used as the reagent to separate bound from free ligand. […]

The term Kd denotes a measure of binding affinity in units of concentration. A low value points to a tighter complex.

As for `O=C(NC(=O)c1c(F)cccc1F)Nc1ccc(Cl)cc1` [1-(4-chloro-phenyl)-3-(2,6-difluorobenzoyl)urea], the “displacement of ^3H-ponasterone A from cytosolic receptor extracts” value on ecdysone receptor was “did not displace”. For the same molecule, in the experiment on Kr cells, the “ecdysone-like responses in whole Kr cells” value was “failed to produce ecdysone-like responses”.

As for `O=C(NC(=O)c1c(F)cccc1F)Nc1cc(Cl)c(Oc2ncc(C(F)(F)F)cc2Cl)c(Cl)c1` [1-(3,5-dichloro-4-(3-chloro-5-trifluoromethyl-2-pyridyloxy)phenyl)-3-(2,6-difluorobenzoyl)urea], on ecdysone receptor, the “displacement of ^3H-ponasterone A from cytosolic receptor extracts” value was “did not displace”. Moreover, the “ecdysone-like responses in whole Kr cells” value in the experiment on Kr cells was “failed to produce ecdysone-like responses”.

In the case of `C[C@H]([C@H](O)CCC(C)(C)O)[C@H]1CC[C@@]2(O)C3=CC(=O)[C@@H]4C[C@@H](O)[C@@H](O)C[C@]4(C)[C@H]3CC[C@]12C` [alpha-ecdysone, reference compound], the “fold greater affinity than 20-hydroxyecdysone” value in the experiment with antiecdysone antiserum worked out at 2.7 fold.

In the case of `CC(C)CC[C@@H](O)[C@](C)(O)[C@H]1CC[C@@]2(O)C3=CC(=O)[C@@H]4C[C@@H](O)[C@@H](O)C[C@]4(C)[C@H]3CC[C@]12C` [^3H-ponasterone A, ponasterone A], the Bmax at ecdysone receptor (Figure 3A legend, in the absence of Example No. 3) is recorded as 0.79 nm; on ecdysone receptor (text b415, in the absence of Example No. 3), 0.71 nM. The Kd at ecdysone receptor (Scatchard plot, in the absence of Example No. 3) was found to be 0.29 nM.

For the origin of these results see patent EP0361645B1, “Organic hydrazine derivatives for pharmaceutical use” (ROHM AND HAAS COMPANY, priority 1988, dated 1990).
